The results in this text go back to PubChem BioAssay (NCI).

Among the test systems are UO-31 renal; PC-3 prostate; OVCAR-4 ovarian; ACHN renal; MDA-MB-231 breast; NCI/ADR-RES ovarian; SK-MEL-28 melanoma; A498 renal.
Test in all cases: growth of human tumour cells (NCI), 48 h

Several values for one entry are separate records, joined by “and”; a condition that tells them apart may be missing. Identical values can stand only once.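 Values below derive from 48-hour exposures of cells grown in 96-well plates, with endpoints linearly interpolated between the two concentrations bracketing the appropriate inhibition level. GI50 marks 50% less growth. Definition used: TGI = concentration required for complete inhibition of growth.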

For the compound `O=C1c2cccc(NCCN=Cc3cc([N+](=O)[O-])ccc3O)c2C(=O)c2c(NCCN=Cc3cc([N+](=O)[O-])ccc3O)cccc21`, the GI50 in the assay with UO-31 renal is 8.34 µM; in the assay with PC-3 prostate, 3.25 µM; in the assay on OVCAR-4 ovarian it was 2.06 µM; with ACHN renal, 5.61 µM; in the assay on MDA-MB-231 breast, 3.12 µM; in the assay with NCI/ADR-RES ovarian it was greater than 100 µM. Also, the results for the GI50 in the assay with SK-MEL-28 melanoma and in the assay with A498 renal were 14.9 µM and 3.73 µM, respectively. Further, the TGI in the assay with UO-31 renal is greater than 100 µM; in the assay on PC-3 prostate, greater than 100 µM; with OVCAR-4 ovarian, greater than 100 µM; in the assay with ACHN renal it was greater than 100 µM; with MDA-MB-231 breast, 71.7 µM; in the assay on NCI/ADR-RES ovarian it was greater than 100 µM. Further, the TGI was greater than 100 µM with SK-MEL-28 melanoma and 31.6 µM in the assay with A498 renal.
Regarding `Cc1ccc(-c2nc(C#N)c(S(=O)(=O)n3nc(C)cc3N)o2)cc1`, the GI50 with UO-31 renal is 1.74 µM; in the assay on PC-3 prostate, 13.8 µM; in the assay on OVCAR-4 ovarian, 4.26 µM; in the assay on ACHN renal, 1.91 µM; in the assay on MDA-MB-231 breast, 2.42 µM; in the assay on NCI/ADR-RES ovarian it was 19 µM. Besides, the GI50 with SK-MEL-28 melanoma was 12.7 µM; in the assay with A498 renal, 16.3 µM. For the same compound, the TGI in the assay with UO-31 renal was 3.33 µM; with PC-3 prostate, 29.8 µM; in the assay with OVCAR-4 ovarian it was 20.7 µM; with ACHN renal, 3.38 µM; in the assay on MDA-MB-231 breast, 6.31 µM; in the assay on NCI/ADR-RES ovarian, 78.5 µM. Further, the results for the TGI with SK-MEL-28 melanoma and in the assay with A498 renal were 25.6 µM and 32.9 µM, respectively.
Consider `CN[C@H](C#Cc1c(F)ccc2c1/C(=C/c1[nH]ccc1OC)C(=O)N2)CO`, for which the GI50 was 0.335 µM in the assay with UO-31 renal; 1.03 µM with PC-3 prostate; 0.631 µM with OVCAR-4 ovarian; 0.115 µM with ACHN renal; 0.787 µM in the assay with MDA-MB-231 breast; 0.973 µM in the assay on NCI/ADR-RES ovarian. Besides, the GI50 is 0.646 µM in the assay with SK-MEL-28 melanoma and 0.452 µM with A498 renal. For the same compound, the TGI worked out at 2.54 µM in the assay with UO-31 renal; 10.8 µM with PC-3 prostate; 4.22 µM with OVCAR-4 ovarian; 2.71 µM with ACHN renal; 3 µM in the assay with MDA-MB-231 breast; 6.58 µM in the assay with NCI/ADR-RES ovarian. The values for the TGI in the assay with SK-MEL-28 melanoma and in the assay on A498 renal were 4.31 µM and 3.35 µM, respectively.
As to `NC(=O)c1ccccc1Nc1ccc2nnc(-c3ccncc3)n2n1`, the GI50 in the assay with UO-31 renal was 4.49 µM; with PC-3 prostate, 16.2 µM; in the assay on OVCAR-4 ovarian, 15.1 µM; with ACHN renal, 6.32 µM; with MDA-MB-231 breast, 9.39 µM; in the assay with NCI/ADR-RES ovarian, 14.7 µM. Besides, the GI50 with SK-MEL-28 melanoma is 15.3 µM; in the assay with A498 renal, 14.2 µM. Also, the TGI in the assay with UO-31 renal came to 17.6 µM; in the assay on PC-3 prostate, 30.3 µM; with OVCAR-4 ovarian it was 30.5 µM; in the assay on ACHN renal it was 20.7 µM; with MDA-MB-231 breast, 25.6 µM; with NCI/ADR-RES ovarian it was 44.7 µM. For the same compound, the TGI was found to be 29.8 µM in the assay with SK-MEL-28 melanoma and 27.2 µM in the assay on A498 renal.
`O=C1C(N2CC2)=C(N2CC2)C(=O)C(N2CC2)=C1N1CC1`: the GI50 is less than 0.0304 µM with UO-31 renal; 0.863 µM in the assay with PC-3 prostate; 2.06 µM with OVCAR-4 ovarian; less than 0.0179 µM in the assay with ACHN renal; 14.9 µM in the assay on MDA-MB-231 breast; 0.838 µM in the assay on SK-MEL-28 melanoma. Also, in the assay with A498 renal, the GI50 is 0.348 µM. The TGI in the assay on UO-31 renal was found to be 0.606 µM; with PC-3 prostate, 21.1 µM; in the assay with OVCAR-4 ovarian, 7.65 µM; in the assay on ACHN renal, 0.351 µM; with MDA-MB-231 breast, 56.1 µM; in the assay with NCI/ADR-RES ovarian, 1.3 µM. The TGI came to 2.32 µM in the assay on SK-MEL-28 melanoma and 1.19 µM with A498 renal.
As for `Nc1nc(N)c2nc(CNc3ccc(C(=O)NC(CC(=O)O)C(=O)O)cc3)cnc2n1` (stereo not given), the GI50 is 1.18 µM in the assay on UO-31 renal; 0.319 µM with PC-3 prostate; greater than 100 µM in the assay on OVCAR-4 ovarian; 2.45 µM with ACHN renal; greater than 100 µM with MDA-MB-231 breast; 0.638 µM with NCI/ADR-RES ovarian. For the same compound, the GI50 in the assay with SK-MEL-28 melanoma was greater than 100 µM; in the assay on A498 renal, 13.3 µM. The TGI with UO-31 renal was greater than 35.9 µM; in the assay on PC-3 prostate, greater than 75.7 µM; with OVCAR-4 ovarian, greater than 100 µM; in the assay on ACHN renal, greater than 100 µM; with MDA-MB-231 breast, greater than 100 µM; in the assay with NCI/ADR-RES ovarian, greater than 100 µM. Also, the TGI in the assay with SK-MEL-28 melanoma and in the assay with A498 renal was greater than 100 µM throughout.
Regarding `O=C(Nc1cccc(-n2cc(-c3ccncc3)c(-c3ccc(Cl)c(O)c3)n2)c1)c1ccc(N2CCOCC2)c(C(F)(F)F)c1`, the GI50 in the assay with UO-31 renal is 2.6 µM; in the assay on PC-3 prostate it was 2.15 µM; in the assay with OVCAR-4 ovarian it was 39.2 µM; in the assay with ACHN renal it was 1.92 µM; with MDA-MB-231 breast, 0.975 µM; with NCI/ADR-RES ovarian, 2.86 µM. Also, the GI50 is 1.5 µM with SK-MEL-28 melanoma and 15.5 µM with A498 renal. For the same compound, the TGI with UO-31 renal was 34.3 µM; in the assay on PC-3 prostate it was greater than 50 µM; in the assay on OVCAR-4 ovarian, greater than 50 µM; in the assay with ACHN renal, greater than 50 µM; with MDA-MB-231 breast, 15.6 µM; with NCI/ADR-RES ovarian it was greater than 50 µM. The TGI in the assay on SK-MEL-28 melanoma is 6.04 µM; with A498 renal it was greater than 50 µM.
With `CC1(N)CCN(c2cccnc2NC(=O)c2nc(-c3ncccc3C(F)(F)F)cnc2N)CC1`, the GI50 was 16.6 µM in the assay with UO-31 renal; 30.9 µM with PC-3 prostate; 21.5 µM with OVCAR-4 ovarian; 19.2 µM in the assay with ACHN renal; 27.8 µM with MDA-MB-231 breast; 68.7 µM in the assay with NCI/ADR-RES ovarian. The results for the GI50 in the assay on SK-MEL-28 melanoma and in the assay on A498 renal were 25 µM and 34.7 µM, respectively. Also, the TGI in the assay on UO-31 renal, with PC-3 prostate, in the assay on OVCAR-4 ovarian, with ACHN renal, with MDA-MB-231 breast and in the assay with NCI/ADR-RES ovarian was greater than 100 µM throughout. In addition, the TGI was 85.6 µM with SK-MEL-28 melanoma and greater than 100 µM in the assay with A498 renal.
As for `COc1cc2ccccc2oc1=O`, the TGI in the assay on UO-31 renal, in the assay with PC-3 prostate, with OVCAR-4 ovarian, with ACHN renal, in the assay on MDA-MB-231 breast and with NCI/ADR-RES ovarian was greater than 100 µM in each case. For the same compound, the TGI in the assay with SK-MEL-28 melanoma and in the assay on A498 renal was greater than 100 µM in each case.
In the case of `COc1c(O)cc2oc(-c3ccc(O)cc3)cc(=O)c2c1O`, the TGI in the assay on UO-31 renal, in the assay with PC-3 prostate, in the assay on OVCAR-4 ovarian, in the assay with ACHN renal, with MDA-MB-231 breast and with NCI/ADR-RES ovarian was greater than 100 µM each time. The results for the TGI with SK-MEL-28 melanoma and in the assay with A498 renal were greater than 100 µM and 16.1 µM, respectively.
As to `COC1/C=C/C(C)C(C(C)C(OC)C(C)CCC(=O)C(C)C(C/C=C/N(C)C=O)OC)OC(=O)/C=C/C=C(\C)CC(OC)CC2=CC(=O)O[C@H](C2)C(C)C(OC)CC(OC)/C=C/C(C)C(OC)C1` (stereo not given in full), the GI50 in the assay with UO-31 renal is 0.0294 µM; with OVCAR-4 ovarian, 0.0108 µM; with ACHN renal it was 0.0282 µM; in the assay on MDA-MB-231 breast it was 0.0114 µM; in the assay on NCI/ADR-RES ovarian, 0.102 µM; in the assay on SK-MEL-28 melanoma, 0.0413 µM. For the same compound, the GI50 in the assay with A498 renal was 0.0176 µM. Further, the TGI with UO-31 renal was 0.0943 µM and 0.0265 µM; in the assay with PC-3 prostate, 0.0387 µM and 0.0417 µM; in the assay on MDA-MB-231 breast, 0.0584 µM; in the assay with SK-MEL-28 melanoma, 0.298 µM and 0.0326 µM; in the assay on A498 renal, 0.0508 µM.
As for `O=c1ccn(C2CC(O)C(CO)O2)c(=O)[nH]1` (stereo not given), the GI50 with UO-31 renal, in the assay on PC-3 prostate, in the assay on OVCAR-4 ovarian, with ACHN renal, in the assay on MDA-MB-231 breast and with NCI/ADR-RES ovarian was greater than 5000 µM in each case. In addition, the GI50 in the assay with SK-MEL-28 melanoma and in the assay with A498 renal was greater than 5000 µM each time. In addition, the TGI in the assay on UO-31 renal, in the assay on PC-3 prostate, with OVCAR-4 ovarian, with ACHN renal, in the assay with MDA-MB-231 breast and in the assay on NCI/ADR-RES ovarian was greater than 5000 µM throughout. Further, the TGI with SK-MEL-28 melanoma and in the assay on A498 renal was greater than 5000 µM throughout.
Consider `CC(=O)OC[C@]12CC[C@@H](C(=O)CBr)[C@@H]1[C@H]1CC[C@@H]3[C@@]4(C)CCCNC(C)(C)[C@@H]4CC[C@@]3(C)[C@]1(C)CC2`, for which the GI50 in the assay on UO-31 renal is 1.71 µM; in the assay on PC-3 prostate it was 1.65 µM; with OVCAR-4 ovarian it was 3.89 µM; in the assay on ACHN renal, 2.02 µM; in the assay with MDA-MB-231 breast it was 3.72 µM; in the assay on NCI/ADR-RES ovarian it was 4.89 µM. Moreover, the figures for the GI50 with SK-MEL-28 melanoma and with A498 renal were 2.23 µM and 15 µM, respectively. For the same compound, the TGI in the assay with UO-31 renal is 4.04 µM; in the assay with PC-3 prostate it was 3.72 µM; with OVCAR-4 ovarian, 18.9 µM; with ACHN renal, 4.28 µM; in the assay on MDA-MB-231 breast, 17.9 µM; with NCI/ADR-RES ovarian, 31.2 µM. Further, the TGI turned out to be 4.23 µM in the assay with SK-MEL-28 melanoma and 28.5 µM in the assay with A498 renal.
In the case of `O=C(O)c1cc2ccc3ccccc3c2oc1=O`, the TGI with UO-31 renal, in the assay with PC-3 prostate, in the assay on OVCAR-4 ovarian, in the assay with ACHN renal, with MDA-MB-231 breast and in the assay with NCI/ADR-RES ovarian was greater than 100 µM in each case. Moreover, the TGI with SK-MEL-28 melanoma and with A498 renal was greater than 100 µM throughout.
